Test results published in patent publication US9433663B2, “Mobilization of hematopoietic stem cells” (Children's Hospital Medical Center, priority 2008, dated 2016).

Experiments:
[1] = tested on: C57Bl/6 mice; assay: mobilization of colony-forming progenitors to peripheral blood, CFU-C assay; type: in vivo; conditions: C57Bl/6 mice, FIG. 8b
Procedure: Whether CASIN administration can induce mobilization of HSC/Ps to peripheral blood of C57Bl/6 mice, mimicking the phenotype observed in Cdc42 conditional knockout mice, was evaluated. First of all, mobilization of hematopoietic progenitor cells was examined by CFU-C assays functionally (FIG. 3a). […] Secondarily, to further explore the ability of CASIN to mobilize LT-HSC which is crucial for long-term repopulation of the mobilized cells, serial transplantations were carried out, where 20 million PB from CASIN-mobilized C57Bl/6 mice was transplanted into primary recipient of NOD/SCID mice, and subsequent secondary and tertiary transplants were finished as well using prior BMs (FIG. 3c). Donor chimerisms were assessed by using H2K^b congenic marker which is positive for donors of C57Bl/6 strain and negative for recipients of NOD/SCID strain. […] Therefore, the studies show CASIN can efficiently mobilize colony-forming hematopoietic progenitors and LT-HSCs with self-renewal and multi-lineage differentiation capacity. Thirdly, to further investigate the potential of CASIN to vacate the BM niche after mobilization, six-color staining of the BM cells was performed from C57Bl/6 mice with or without CASIN treatment followed by FACS analysis. […] Therefore, a transient decrease in BM and a concomitant increase in peripheral organs of HSCs would be beneficial to facilitating the subsequent HSC transplantation.
To determinate the hematopoietic progenitor content in the PB of mobilized C57Bl/6 mice, colony-forming unit assay was performed as described previously. Briefly, 200 ul PB was plated in triplicate into methylcellulose (MethocultM3434; StemCell Technology, Vancouver, BC, Canada). Colonies were then counted 7 d later.

[2] = tested on: donor cell engraftment; assay: Example 9 mobilization as preparative regimen for HSC transplantation; type: in vivo, mice; conditions: compared to the non-mobilization control
Procedure: If the microenvironmental niches are vacated after CASIN exposure, donor HSCs might engraft better in hosts treated with a mobilizing agent such as CASIN compared with non-mobilized controls. To test this, bone marrow transplantation is performed on recipient mice which are pre-conditioned with CASIN. […] Additionally, AMD3100, G-CSF, and control medium are used in parallel with CASIN as controls.
Briefly, mice are treated with CASIN, and 4×10^7 donor bone marrow cells from congenic mouse strain are transplanted 48 h later. Donor cell engraftment is assayed at 3 months using the congenic markers by flow cytometry.
Additionally, multiple cycles of mobilization with CASIN may increase the number of available niches. Therefore, this study investigates whether repeated cycles of CASIN mobilization, each followed by donor cell transplantation, could result in increased engraftment. Briefly, mice receive one weekly injection of CASIN on 3 consecutive weeks and 4×10^7 donor marrow cells are transplanted 48 hours after each mobilization. Control animals also received 3 weekly infusions of 4×10^7 donor marrow cells but no CASIN. And the donor engraftment is assayed at 3 months after transplantation as well.

[3] = tested on: Fancc−/− mice; assay: Example 10 preparative regimen for BM transplantation in Fancc−/− mice; type: in vivo; conditions: preconditioning before BM transplantation
Procedure: Four preparative regimens before BM transplantation on Fancc−/− mice are used to evaluate the capacity of CASIN as a preconditioning agent: (1) Control group; (2) CY group: a single dose of 40 mg/kg CY intraperitoneally; (3) CASIN group: 2.5 mg/Kg; (4) combination of CASIN and CY: one injection of CASIN is given in combination with reduced doses of CY.
Fancc−/− mice are preconditioned with each of these four regimens, and 4×10^7 BM cells from congenic strain mice are transplanted into preconditioned mice by tail vein injection. Mice that underwent transplantation are bled every four weeks to monitor the chimerism of donor-derived cells in PB. And at 3 m, the mice are sacrificed to evaluate the engraftment of donor-derived cells in BM.

[4] = tested on: Fancc−/− mice; assay: Example 10 HSC/P mobilization in Fancc−/− mice; conditions: mouse, in vivo
Procedure: The effects of CASIN on HSC/P mobilization in Fancc−/− mice are investigated under four groups in parallel with WT mice: (1) Control group; (2) G-CSF group: 2.5 μg G-CSF per mouse, twice a day for 4 d120; (3) CASIN group: 2.5 mg/Kg; (4) combination of CASIN and G-CSF: one injection of CASIN is given 40 h before the end of 4 d G-CSF administration.
Fancc−/− or WT mice are mobilized with regimens corresponding to the four experimental groups. Then PB are harvested by cardiac puncture. Phenotypically, the absolute number and percentage of HSC/Ps in PB after mobilization are determined as those of LSK (Lin− Sca+ c-Kit+) cells by flow cytometry. Functionally, CFU-C assay is performed in triplicate for each mouse by using PB of mice from different experimental groups, and CFU-GM, CFU-GEMM, BFU-E, and CFU-E are distinguished by morphology and using cytokine combinations. Furthermore, the long-term repopulation capacity of the mobilized HSCs is evaluated using a competitive repopulating assay and subsequent secondary transplantation as discussed above.

Molecule	mobilization of colony-forming progenitors [1]	engraftment of donor cells in pre-conditioned recipients [2]	repopulation and engraftment of donor derived cells in PB and BM of Fancc−/− recipient mice [3]	mobilization of HSC/Ps (LSK cells, progenitor colonies) in Fancc−/− mice [4]
c1cc(CN2CCCNCCNCCCNCC2)ccc1CN1CCCNCCNCCCNCC1 [AMD3100, reference compound]	can mobilize colony-forming progenitors	significantly increased engraftment of donor cells	–	–
O=P1(N(CCCl)CCCl)NCCCO1 (stereo not drawn) [CY, reference compound]	–	–	comparable engraftment and repopulation	–
G-CSF: growth factor, currently available HSPC mobilization agent (protein, UniProt P09919 31-207, looked up) Granulocyte …: TPLGPASSLPQSFLLKCLEQVRKIQGDGAALQEKLVSECATYKLCHPEELVLLGHSLGIPWAPLSSCPSQALQLAGCLSQLHSGLFLYQGLLQALEGISPELGPTLDTLQLDVADFATTIWQQMEELGMAPALQPTQGAMPAFASAFQRRAGGVLVASHLQSFLEVSYRVLRHLAQP	can mobilize colony-forming progenitors	significantly increased engraftment of donor cells	–	less effective mobilizer of HSC/Ps in Fancc−/− mice than in WT mice
